First: COc1ccc(C(=NOC(C)=O)c2cc(F)ccc2F)c(O)c1
Second: COC(=O)c1ccc(Cl)cc1NC(=O)Cc1cccc(OC)c1
The melting point of the first is lower: 110 to 111 °C for the first, 144 to 146 °C for the second.

First: C=CCOC(=O)c1c(C)nc2[nH]c3ccccc3c2c1N
Second: Cc1nc(N)nc(OCc2ccccc2)c1[N+](=O)[O-]
The melting point of the first is higher: 220 to 222 °C for the first, 159 to 160 °C for the second.

First: O=Cc1c(O)c(Cl)cc(Cl)c1F
Second: N#CC(=CO)c1ccc(Cl)cc1Cl
The melting point of the first is lower: 58 to 62 °C for the first, 162 to 163 °C for the second.

Compared with `CCC1NCCc2ccc(NC(=N)c3cccs3)cc21` (centres undefined), `CCCN1CC=C(c2cccc3[nH]ccc23)CC1` is lower in melting point: 142 to 144 °C for the first, 105 °C for the second.

First: CCCCC(Cc1ccc(OCCNC(=O)c2ccc(OC(C)C)nc2)cc1)C(=O)O (centres undefined)
Second: CC[C@H](C)[C@H](NC(=O)[C@H](Cc1ccccc1)NC(=O)OCc1ccccc1)C(=O)OC
The melting point of the first is higher: 117 to 118 °C for the first, 94.5 to 95.5 °C for the second.

First: O=c1oc(-c2ccccc2)cc(O)c1SCCCc1ccccc1
Second: COc1ccc(-c2nc(-c3ccccc3)c3ncc(Cl)cc3n2)cc1
The melting point of the first is lower: 114 to 116 °C for the first, 193 to 194 °C for the second.

Compared with `Cc1c2c(c(Cl)n1C)NC(=O)CN=C2c1ccccc1`, `CCOC(=O)c1cc2ccc3cc4ccccc4cc3c2n1C` is lower in melting point: 195 °C for the first, 165 to 166 °C for the second.

Compared with `CCOC(=O)COc1cc(F)ccc1[N+](=O)[O-]`, `COC(=O)c1cc(OC)c(OCc2ccccc2)cc1[N+](=O)[O-]` is higher in melting point: 37 to 39 °C for the first, 104 to 105 °C for the second.

First: O=C(/C=C/c1cccc(-c2cccc([N+](=O)[O-])c2)c1)Nc1ccc(CN2CCCCC2)cc1
Second: N#Cc1ccc(NC(=O)c2cccc(OCc3cc(F)cc(F)c3)c2)cc1
The melting point of the first is lower: 178 to 179 °C for the first, 185 to 187 °C for the second.

Compared with `Clc1cnc2c(NCc3ccccc3)nc(Cl)nc2c1`, `CCCc1nnc2c(Cl)nc3ccccc3n12` is higher in melting point: 169 to 170 °C for the first, 173 to 175 °C for the second.

First: O=C(Nc1ccc(S(=O)(=O)c2ccccn2)cc1)C(O)(C(F)(F)F)C(F)(F)F
Second: O=C(Nc1nnc(C(F)(F)F)s1)c1ccc2ccccc2c1
The melting point of the first is lower: 199 to 200 °C for the first, 249 to 251 °C for the second.

First: c1ccc(C(c2ccccc2)(c2ncccn2)n2ccnc2)cc1
Second: NC(=O)CCc1cc(-c2ccncc2)sc1-c1ccncc1
The melting point of the first is lower: 138 to 143 °C for the first, 196 °C for the second.

First: Nc1nc(Cl)c(Cl)nc1CO
Second: N#Cc1ccc(-c2nc(C(F)(F)F)c(C(=O)O)s2)cc1
The melting point of the first is lower: 174 to 176 °C for the first, 195 to 196 °C for the second.

First: COc1cccc(C2(O)CCN(C)CC2)c1
Second: Cc1cccc(OC2=NS(=O)(=O)N=C(N)N2C(C)C)c1
The melting point of the first is higher: 111 to 113 °C for the first, 56 to 58 °C for the second.

Compared with `CCOc1ccc2c(C)c(CCO)c(=O)oc2c1OCC`, `CCOC(=O)c1cc(=O)cc(-c2ccccc2OC)o1` is lower in melting point: 130 to 131 °C for the first, 78 to 81 °C for the second.

First: CC(C)N1CC2(COc3ccc([N+](=O)[O-])cc3OC2)OC1=O (centres undefined)
Second: CC(=O)N(C)c1cccc(Sc2ccc([N+](=O)[O-])cc2)c1
The melting point of the first is higher: 140 to 144 °C for the first, 66 to 68 °C for the second.

Compared with `O=C1CCSc2cc(F)ccc21`, `NC(=O)C(c1ccc(F)c(F)c1)c1ccccn1` (racemic) is higher in melting point: 61 to 66 °C for the first, 123 to 124 °C for the second.

First: CN(C)C(CN1CCN(c2ccc(F)cc2)CC1)CN1c2cccc3cccc(c23)S1(=O)=O (centres undefined)
Second: O=C(NCC1CCN(C[C@H]2COc3cccc(Cl)c3O2)CC1)c1cccnc1
The melting point of the first is higher: 118 °C for the first, 52 to 54 °C for the second.

Compared with `CC(=O)c1c(Sc2cc(Cl)cc(Cl)c2)[nH]c2ccc(Cl)cc12`, `CCOC(=O)Nc1cc(Oc2ncccn2)c(Br)cc1F` is lower in melting point: 180 to 185 °C for the first, 178 °C for the second.

Compared with `Cc1ccc(Cc2cnc[nH]2)cc1NS(C)(=O)=O`, `CCOCCOCCn1ccc2c1CC(c1ccccc1Cl)C1C(=O)NC(=O)C21` (centres undefined) is lower in melting point: 170 °C for the first, 158 to 162 °C for the second.

First: CC(=O)OC[C@H]1OCC(=NO)[C@@H](OC(C)=O)[C@@H]1OC(C)=O
Second: COC(=O)N=C(NC(=O)NC1CCCCC1)OC
The melting point of the first is higher: 90 to 92 °C for the first, 79 to 80.5 °C for the second.

First: CCCC[C@H](NC(=O)OC(C)(C)C)C(=O)CCCc1cccs1
Second: O=C(O)CCC1CCC(=O)N1 (centres undefined)
The melting point of the first is lower: 50.5 to 52.5 °C for the first, 125 to 127 °C for the second.
